Eight molecules from patent US20080312162A1, “Methods and Compositions for Enzyme-Specific Activation of Carbohydrate-Conjugated Prodrugs” (THE OHIO STATE UNIVERSITY, priority 2004, published 2008) can be followed below.

pIC50: −log10 of the molar value. Entries after “also recorded” stand apart in the source; their conditions may differ.

Holding throughout (format): cell-based, human
The subject of test [1] is K562. The test is described as follows: Beta-glucosidase inhibition assay (DMDP) in K562 cell line. The settings on record: for Cell growth relative to untreated cells: higher concentration (0.4 μM). From the text: Similar results showing preferential activation of glucose conjugates relative to galactose or lactose conjugates were obtained in other cancer cell lines. The glucose-conjugated compound is apparently cleaved by native glucosidase inside of the cancer cells resulting in release of a biologically active anti-cytostatic compound. The cleavage of glucose conjugates by an enzymatic pathway to release an active drug is shown by a beta-glucosidase inhibition assay. FIG. 5 is a graph showing the results of a beta-glucosidase inhibition assay studied in K562 cell line. Two different concentrations of prodrug were tested in this experiment. For compound 24, 17-demethoxy-17-[(2-β-glucopyranosylethyl)amino]geldanamycin], the higher concentration is 0.4 μM and the lower concentration is 0.2 μM. […] Percentages of cell growth were calculated compared to control cells in the absence of beta-glucosidase inhibitor and prodrug solution. Each bar represents the average of three experiments. […] While the higher concentration of compound 24 limits cells growth to about 20% of untreated cells, when the beta-glucosidase inhibitor DMDP is added, the high concentration of compound 24 only reduces growth to about 60% that of untreated cells.
Beta-glucosidase Inhibition assay. To verify if the cleavage of sugar moieties from compound 24 is crucial for the anticancer activity, we performed the β-glucosidase inhibition study in K562 cell line. The K562 cells were treated with β-glucosidase inhibitor 2, 5-dihydroxymethyl-3,4-dihydroxypyrrolidine (DMDP) solution (100 μM) for 10 minutes before adding carbohydrate-geldanamycin conjugates. The concentrations of glucose-GA were 0.4 μM and 0.2 μM, respectively. […] From the structures of compounds 24 and 25, the only difference between these two compounds is the sugar moiety, which is glucose in compound 24 and galactose in compound 25.
Beta-Glucosidase inhibition assay for compound 2425. […] The exponentially growing cancer cells were incubated in three different conditions (cells with different concentration of test compounds and DMDP, cells with different concentration of test compounds only, and cell with DMDP only) for 72 hours at 37° C. (5% CO2, 100% humidity). The control cells were exposed to fresh medium only. Then, the anticancer activities of compound 24, 25 were measured with MTS assay as described above. The percentages of cell growth for tested compounds vs. control cells were calculated by the absorbance at 490 nm.

The subject of the next test is SW620. The test is described as follows: Anticancer activity (MTS assay) in SW620 cells. As for the experimental part: (§1) The anticancer activities of six prodrug conjugates synthesized by the method were tested for anticytostatic activity by using the MTS assay to show suppression of cell growth. Four different human cell lines, including colorectal carcinoma cells (SW620, HT 29), breast cancer cells (MCF7), and leukemia cells (K562), were tested using the MTS assay. Each compound was tested at concentration 1-25,000 nM. GA also was tested for comparison. The inhibition of cell growth was calculated compared to control cells without drug treatment. For purposes of this description of in vitro cell culture testing, drug concentrations are given for the molar concentrations of the chemotherapeutic agents present in the media at the initiation of the test. Skilled artisans are aware of the various conversion factors necessary to convert media concentrations to tissue concentration targets and the dose necessary to achieve such a dose.
(§2) Cell Culture. Cell lines SW620, HT29, MCF7, and K562 were cultured in RPMI 1640 (Invitrogen, Carlsbad, Calif., USA) supplemented with 10% fetal bovine serum (FBS), 1% non-essential amino acid and Penicillin (100 u/mL) Streptomycin (100 ug/mL) in a humidified atmosphere of 5% CO2 and 95% air at 37° C. The culture mediums were changed every 2-3 days.
(§3) Anticancer activity of compound (24-29) (MTS assay). Cells (2,000-10,000) were seeded in 96 well plates in RPMI-1640 and incubated for 24 hours. The exponentially growing cancer cells were incubated with various concentrations of compounds for 72 hours at 37° C. (5% CO2, 95% humidity).
Background: Formazan colour is commonly taken as a measure of viable cells.

The subject of a further test is HT29. The test is described as follows: Anticancer activity (MTS assay) in HT29 cells. As to the method:
as §1, §2, §3

The subject of the next test is MCF7. The test can be described thus: Anticancer activity (MTS assay) in MCF7 cells. The settings on record: 72 hours. As to the method:
as §1, §2, §3

Test [2] relates to K562. The test can be described thus: Anticancer activity (MTS assay) in K562 cells. The settings on record: 72 hours. As for the experimental part: as §1, §2, §3
The test system of another test is various cancer cells. The test can be described thus: Anticancer activity (MTS assay), pooled statements on various cancer cells. Conditions: no added enzyme. As for the experimental part: as §1, §3
The subject of the next test is SW620, HT29 and K562. The test can be described thus: Beta-galactosidase cleavage assay. The settings on record: 2 units beta-galactosidase. As to the method: Thus, galactose-GA and lactose-GA conjugates were exposed to beta-galactosidase and observed for enhancement of anticancer activities. […] For compounds 25-29, 1 μM concentration of prodrug compounds were used. GA (0.01 μM), compound 24 (0.1 μM) and beta-galactosidase (2 units) was used in the cell culture. Each bar in the graphs shown is the average of three experiments. Relative percentage of cell growth was calculated compared to control cells in the absence of beta-galactosidase and drug solution. Cell lines SW620, HT29 and K562 were exposed to 2 units of beta-galactosidase and then treated individually with 1 μM of compounds 25-29. At this concentration, galactose-geldanamycin conjugates alone were relatively devoid of anticancer activity.
Beta-galactosidase cleavage assay. Cells (2,000-10,000) were seeded in 96 well plates in RPMI-1640 and incubated for 24 hours. The exponentially growing cancer cells were incubated with 2 units of beta-galactosidase for 10 minutes. The same concentration solutions of various compounds (25-29) were added to each well. The control cells were exposed to fresh medium only or to beta-galactosidase alone. After incubated for 72 hours at 37° C. (5% CO2, 100% humidity), the cell growth was measured with MTS assay as described above. The percentages of cell growth of tested compounds vs. control were calculated by measuring the absorbance at 490 nm.

Regarding `OCC1NC(CO)C(O)C1O` (centres unmarked) [DMDP, 2,5-dihydroxymethyl-3,4-dihydroxypyrrolidine, reference compound], the “Effect on cell growth” value with K562 [1] (DMDP alone) is listed as “did not have any effect on cell growth”.
As usually defined, the pIC50 is −log10 of the IC50, conventionally taken in molar units. A lower pIC50 goes with a high IC50. `COC1=C2C[C@@H](C)C[C@H](OC)[C@H](O)[C@@H](C)/C=C(\C)[C@H](OC(N)=O)[C@@H](OC)/C=C\C=C(/C)C(=O)NC(=CC1=O)C2=O` [GA, Geldanamycin, reference compound]: the pIC50 was 8.21 in the test on SW620 (Homo sapiens, SW-620, 72 hours); 7.61 with HT29 (Homo sapiens, HT-29, 72 hours); 8.19 with MCF7 (Homo sapiens); 7.66 in the test with K562 [2] (Homo sapiens).
In the case of `COC1C=CC=C(C)C(=O)NC2=CC(=O)C(NCCOC3OC(CO)C(O)C(O)C3O)=C(CC(C)CC(OC)C(O)C(C)C=C(C)C1OC(N)=O)C2=O` (stereo not drawn) [compound 24, 17-demethoxy-17-[(2-β-glucopyranosylethyl)amino]geldanamycin], the pIC50 is 7.15 with SW620 (72 hours); 6.98 with HT29 (72 hours); 6.12 with MCF7; 6.42 in the test with K562 [2]; 6.42 to 7.15 in the test on various cancer cells (various cancer cells). Also, in the test with various cancer cells, the “Anticytostatic activity against tumor cells” value was “showed anticytostatic activity”. In the test with various cancer cells (various cancer cells), the “Anticancer activity IC50 in various cancer cells” value is “within the nanomolar range”. In the test on K562 [1] (DMDP 100 μM), the “Decrease of activity after treatment with DMDP” value is recorded as 3 fold. Besides, the “Effect of beta-glucosidase inhibitor DMDP on activity” value in the test with K562 [1] (DMDP 100 μM, listed as glucose-GA) is “completely abolished”. The “Cell growth relative to untreated cells” value is “about 60%” with K562 [1] (with beta-glucosidase inhibitor DMDP (100 μM)) and “about 20%” with K562 [1] (without DMDP). For the same molecule, the “Effect of beta-galactosidase treatment on activity” value was “did not affect biological activity; also recorded: relatively unaffected” with SW620, HT29 and K562; “not affected” with SW620, HT29 and K562 (listed as glucose-GA).
As to `COC1C=CC=C(C)C(=O)NC2=CC(=O)C(NCCOC3OC(CO)C(O)C(O)C3O)=C(CC(C)CC(OC)C(O)C(C)C=C(C)C1OC(N)=O)C2=O` (stereo not drawn) [compound 25, 17-demethoxy-17-[(2-β-galactopyranosylethyl)amino]geldanamycin], the pIC50 with HT29 (72 hours) is less than 4.85; in the test on MCF7, less than 4.60; with K562 [2], less than 4.64. The “Effect of beta-glucosidase inhibitor DMDP on activity” value with K562 [1] (DMDP 100 μM) is on record as “did not affect; also recorded: relatively unaffected”.
Take `COC1C=CC=C(C)C(=O)NC2=CC(=O)C(NCCCOC3OC(CO)C(O)C(O)C3O)=C(CC(C)CC(OC)C(O)C(C)C=C(C)C1OC(N)=O)C2=O` (centres unmarked) [compound 26]: the pIC50 with SW620 (72 hours) was less than 4.85; with HT29 (72 hours), less than 5.22; with MCF7 it was less than 4.92; in the test on K562 [2], less than 4.85.
As for `COC1C=CC=C(C)C(=O)NC2=CC(=O)C(NCCCCCOC3OC(CO)C(O)C(O)C3O)=C(CC(C)CC(OC)C(O)C(C)C=C(C)C1OC(N)=O)C2=O` (centres unmarked) [compound 27], the negative logarithm of the IC50 (pIC50) in the test with SW620 (72 hours) is less than 4.89; with HT29 (72 hours) it was less than 4.89; in the test on MCF7, less than 4.77; in the test with K562 [2] it was less than 4.72.
Take `COC1C=CC=C(C)C(=O)NC2=CC(=O)C(NCCOCCOC3OC(CO)C(O)C(O)C3O)=C(CC(C)CC(OC)C(O)C(C)C=C(C)C1OC(N)=O)C2=O` (stereo not drawn) [compound 28, 17-demethoxy-17-{[2-(2-β-galactopyranosylethyl)ethyl]amino}geldanamycin]: the pIC50 in the test with SW620 (72 hours) is less than 4.96; in the test on HT29 (72 hours), less than 4.89; in the test on MCF7, less than 4.66; in the test on K562 [2], less than 4.82.
`COC1C=CC=C(C)C(=O)NC2=CC(=O)C(NCCOC3OC(CO)C(OC4OC(CO)C(O)C(O)C4O)C(O)C3O)=C(CC(C)CC(OC)C(O)C(C)C=C(C)C1OC(N)=O)C2=O` (stereo not drawn) [compound 29, 17-demethoxy-17-[(2-β-lactopyranosylethyl)amino]geldanamycin]: the pIC50 was less than 4.70 with SW620 (72 hours), less than 4.60 in the test with HT29 (72 hours), less than 4.66 in the test with MCF7 and less than 4.60 with K562 [2].
